*1 amine or outer side, *2 acyl side, *3 side chain or, on linkers, in order; H or OH if unused. Where a SMILES comes first, the peptide text is derived from it. Bridges are numbered along the chain shown (N, C = ends). Roman numbers before positions name the chains, in order. [ ]: non-standard residue; d: D form. The star is where a group is joined. ξ: configuration not given here. TATA = O=C(CC[*:1])N1CN(C(=O)CC[*:2])CN(C(=O)CC[*:3])C1; Dolaproine = CO[C@@H]([C@@H]1CCCN1)[C@@H](C)C(=O)O; X1 = CC[C@H](C)C(C(CC(=O)[*:2])OC)N(C)[*:1]; 1Nal = N[C@@H](Cc1cccc2ccccc12)C(=O)O; X3 = O=C(CCCC(=O)[*:2])NCCC(=O)[*:1]; PABC = O=C(OCc1ccc(N[*:1])cc1)[*:2]; Hyp = O=C(O)[C@@H]1C[C@@H](O)CN1; hArg = N=C(N)NCCCC[C@H](N)C(=O)O; Cit = NC(=O)NCCC[C@H](N)C(=O)O; X2 = CC(N*)[C@@H](O)c1ccccc1; ξNMeV = CNC(C(=O)O)C(C)C; ξV = CC(C)C(N)C(=O)O; Sar = CNCC(=O)O
Experiments:
Parameters in all cases: species or system Mus Musculus
MDA-MB-468 xenograft = assay: Example 4: in vivo efficacy in MDA-MB-468 xenograft (breast cancer model) in Balb/c nude mice
A549 xenograft = assay: Example 9.1: in vivo efficacy in A549 xenograft in Balb/c nude mice; details: for Tumor volume trace over time: iv; for T/C: treated group average tumor volume / control group; for Tumor volume: Mean ± SEM
HT-1376 xenograft = assay: Example 9.3: in vivo efficacy in HT-1376 xenograft in CB17-SCID mice; details: for TGI / Tumor volume (TV) / Tumor volume / T/C: day 14; for Tumor volume trace over time: mean; for Tumor volume: mean ± SEM; for T/C: treated/control group average tumor volume
[1] = 3 mpk, biw, day 14 after the start of treatment
[2] = 3 mpk, qw, day 14 after the start of treatment
[3] = 5 mpk, qw, day 14 after the start of treatment

## CC[C@H](C)C(C(CC(=O)N1CCC[C@H]1[C@H](OC)[C@@H](C)C(=O)NC(C)[C@@H](O)c1ccccc1)OC)N(C)C(=O)[C@@H](NC(=O)C(C(C)C)N(C)C(=O)OCc1ccc(NC(=O)[C@H](CCCNC(N)=O)NC(=O)C(NC(=O)CCCC(=O)NCCC(=O)N(C)CC(=O)N(C)CC(=O)N(C)CC(=O)N(C)CC(=O)N(C)CC(=O)N(C)CC(=O)N(C)CC(=O)N(C)CC(=O)N(C)CC(=O)N(C)CC(=O)N[C@H]2CSCCC(=O)N3CN4CN(C3)C(=O)CCSC[C@H](NC(=O)[C@@H](CC(=O)O)NC(=O)[C@H](Cc3cccc5ccccc35)NC(=O)[C@@H]3CCCN3C2=O)C(=O)N[C@@H](CCSC)C(=O)N[C@@H](CCCCNC(=N)N)C(=O)N[C@@H](CC(=O)O)C(=O)N[C@@H](Cc2c[nH]c3ccccc23)C(=O)N[C@@H](CO)C(=O)N[C@@H]([C@@H](C)O)C(=O)N2CCC[C@H]2C(=O)N2C[C@H](O)C[C@H]2C(=O)N[C@@H](Cc2c[nH]c3ccccc23)C(=O)N[C@H](C(N)=O)CSCCC4=O)C(C)C)cc1)C(C)C (stereo partly drawn) [BCY8245, MMAE-PABC-Cit-Val-Glutaryl-BCY8234] (I: [Sar][Sar][Sar][Sar][Sar][Sar][Sar][Sar][Sar][Sar]CP[1Nal][dD]CM[hArg]DWSTP[Hyp]WC-NH2 / II: [ξV][Cit][PABC][ξNMeV]V[X1][Dolaproine]-X2; linker I:11-I:15-I:25 via TATA; linker I:N-II:N via X3)
MDA-MB-468 xenograft; 5 mpk, qw, iv, day 9
  Tumor volume: 58 ± 5 mm^3
MDA-MB-468 xenograft; 5 mpk, qw, iv, day 11
  Tumor volume: 49 ± 5 mm^3
MDA-MB-468 xenograft; 5 mpk, qw, iv, day 14
  Tumor volume: 47 ± 2 mm^3
MDA-MB-468 xenograft; 5 mpk, qw, iv, day 16
  Tumor volume: 37 ± 4 mm^3
MDA-MB-468 xenograft; 5 mpk, qw, iv, day 18
  Tumor volume: 35 ± 3 mm^3
MDA-MB-468 xenograft; 5 mpk, qw, iv, day 21
  Tumor volume: 29 ± 3 mm^3
MDA-MB-468 xenograft; 5 mpk, qw, day 21
  T/C: 6.6%
  TGI: 168.4%
MDA-MB-468 xenograft; 5 mpk, qw, day 21, Mean ± SEM (Table 22)
  Tumor volume: 29 ± 3 mm^3
MDA-MB-468 xenograft; mouse, in vivo
  anti-tumour activity (in words): good anti-tumour activity
A549 xenograft; 3 mg/kg biw, day 14
  TGI: 90.8%
  Tumor volume (TV): 194 mm^3
A549 xenograft; 3 mg/kg qw, day 14
  TGI: 51.4%
  Tumor volume (TV): 356 mm^3
A549 xenograft; 5 mg/kg qw, day 14
  TGI: 82.6%
  Tumor volume (TV): 228 mm^3
A549 xenograft; 3 mpk, biw, day 0 after the start of treatment
  Tumor volume trace over time: 157 ± 14
A549 xenograft; 3 mpk, biw, day 2 after the start of treatment
  Tumor volume trace over time: 183 ± 27
A549 xenograft; 3 mpk, biw, day 5 after the start of treatment
  Tumor volume trace over time: 158 ± 16
A549 xenograft; 3 mpk, biw, day 7 after the start of treatment
  Tumor volume trace over time: 184 ± 6
A549 xenograft; 3 mpk, biw, day 9 after the start of treatment
  Tumor volume trace over time: 182 ± 8
A549 xenograft; 3 mpk, biw, day 12 after the start of treatment
  Tumor volume trace over time: 190 ± 15
A549 xenograft; [1]
  Tumor volume trace over time: 194 ± 27
  TGI: 90.8%
  Tumor volume: 194 ± 27 mm^3
A549 xenograft; 3 mpk, biw, day 14
  T/C: 34.2%
A549 xenograft; 3 mpk, qw, day 0 after the start of treatment, mean ± SEM
  Tumor volume trace over time: 157 ± 10
A549 xenograft; 3 mpk, qw, day 2 after the start of treatment
  Tumor volume trace over time: 208 ± 15
A549 xenograft; 3 mpk, qw, day 5 after the start of treatment
  Tumor volume trace over time: 197 ± 25
A549 xenograft; 3 mpk, qw, day 7 after the start of treatment
  Tumor volume trace over time: 257 ± 40
A549 xenograft; 3 mpk, qw, day 9 after the start of treatment
  Tumor volume trace over time: 293 ± 41
A549 xenograft; 3 mpk, qw, day 12 after the start of treatment
  Tumor volume trace over time: 341 ± 54
A549 xenograft; [2]
  Tumor volume trace over time: 356 ± 53
  TGI: 51.4%
  Tumor volume: 356 ± 53 mm^3
A549 xenograft; 3 mpk, qw, day 14
  T/C: 62.8%
A549 xenograft; 5 mpk, qw, day 0 after the start of treatment
  Tumor volume trace over time: 157 ± 14
A549 xenograft; 5 mpk, qw, day 2 after the start of treatment
  Tumor volume trace over time: 179 ± 22
A549 xenograft; 5 mpk, qw, day 5 after the start of treatment
  Tumor volume trace over time: 147 ± 10
A549 xenograft; 5 mpk, qw, day 7 after the start of treatment
  Tumor volume trace over time: 172 ± 23
A549 xenograft; 5 mpk, qw, day 9 after the start of treatment
  Tumor volume trace over time: 173 ± 24
A549 xenograft; 5 mpk, qw, day 12 after the start of treatment
  Tumor volume trace over time: 204 ± 36
A549 xenograft; [3]
  Tumor volume trace over time: 228 ± 33
  TGI: 82.6%
  Tumor volume: 228 ± 33 mm^3
A549 xenograft; 5 mpk, qw, day 14
  T/C: 40.2%
A549 xenograft; all dose groups
  bodyweight (in words): maintained the bodyweight well
A549 xenograft; mouse, in vivo
  tumor response (in words): tumor growth is restrained by BCY8245 but the tumor does not undergo regression
HT-1376 xenograft; 3 mg/kg biw
  TGI: 72.3%
  Tumor volume (TV): 407 mm^3
HT-1376 xenograft; 3 mg/kg qw
  TGI: 50.9%
  Tumor volume (TV): 603 mm^3
HT-1376 xenograft; 5 mg/kg qw
  TGI: 66.0%
  Tumor volume (TV): 465 mm^3
HT-1376 xenograft; 3 mpk, biw, iv, day 0 after the start of treatment
  Tumor volume trace over time: 154 mm^3
HT-1376 xenograft; 3 mpk, biw, iv, day 2 after the start of treatment
  Tumor volume trace over time: 248 mm^3
HT-1376 xenograft; 3 mpk, biw, iv, day 5 after the start of treatment
  Tumor volume trace over time: 203 mm^3
HT-1376 xenograft; 3 mpk, biw, iv, day 7 after the start of treatment
  Tumor volume trace over time: 273 mm^3
HT-1376 xenograft; 3 mpk, biw, iv, day 9 after the start of treatment
  Tumor volume trace over time: 356 mm^3
HT-1376 xenograft; 3 mpk, biw, iv, day 12 after the start of treatment
  Tumor volume trace over time: 391 mm^3
HT-1376 xenograft; 3 mpk, biw, iv
  TGI: 72.3%
  Tumor volume: 407 ± 53 mm^3
  T/C: 38.1%
HT-1376 xenograft; 3 mpk, biw, iv, day 14 after the start of treatment
  Tumor volume trace over time: 407 mm^3
HT-1376 xenograft; 3 mpk, qw, iv, day 0 after the start of treatment
  Tumor volume trace over time: 153 mm^3
HT-1376 xenograft; 3 mpk, qw, iv, day 2 after the start of treatment
  Tumor volume trace over time: 254 mm^3
HT-1376 xenograft; 3 mpk, qw, iv, day 5 after the start of treatment
  Tumor volume trace over time: 298 mm^3
HT-1376 xenograft; 3 mpk, qw, iv, day 7 after the start of treatment
  Tumor volume trace over time: 398 mm^3
HT-1376 xenograft; 3 mpk, qw, iv, day 9 after the start of treatment
  Tumor volume trace over time: 468 mm^3
HT-1376 xenograft; 3 mpk, qw, iv, day 12 after the start of treatment
  Tumor volume trace over time: 502 mm^3
HT-1376 xenograft; 3 mpk, qw, iv
  TGI: 50.9%
  Tumor volume: 603 ± 76 mm^3
  T/C: 56.4%
HT-1376 xenograft; 3 mpk, qw, iv, day 14 after the start of treatment
  Tumor volume trace over time: 603 mm^3
HT-1376 xenograft; 5 mpk, qw, iv, day 0 after the start of treatment
  Tumor volume trace over time: 153 mm^3
HT-1376 xenograft; 5 mpk, qw, iv, day 2 after the start of treatment
  Tumor volume trace over time: 237 mm^3
HT-1376 xenograft; 5 mpk, qw, iv, day 5 after the start of treatment
  Tumor volume trace over time: 228 mm^3
HT-1376 xenograft; 5 mpk, qw, iv, day 7 after the start of treatment
  Tumor volume trace over time: 317 mm^3
HT-1376 xenograft; 5 mpk, qw, iv, day 9 after the start of treatment
  Tumor volume trace over time: 394 mm^3
HT-1376 xenograft; 5 mpk, qw, iv, day 12 after the start of treatment
  Tumor volume trace over time: 438 mm^3
HT-1376 xenograft; 5 mpk, qw, iv
  TGI: 66.0%
  Tumor volume: 465 ± 33 mm^3
  T/C: 43.5%
HT-1376 xenograft; 5 mpk, qw, iv, day 14 after the start of treatment
  Tumor volume trace over time: 465 mm^3
